# Reference: patent publication US8362249B2, “CXCR3 receptor antagonists” (Boehringer Ingelheim International GmbH, priority 2009, dated 2013)
# Molecular target: CXCR3 (Macaca fascicularis, UniProt A0A2K5UV19)
# Assay: functional cellular assay measuring calcium flux in CXCR3 transfected cells (block of CXCR3/IP-10 interaction)
# Format: cell-based
# Details: IP-10 induced intracellular calcium flux; Cyno-CHO cells stably expressing recombinant CXCR3 and G-alpha-16
# Procedure: Compounds are assessed for the ability to block the interaction of CXCR3 and IP-10 in a functional cellular assay measuring calcium flux in CXCR3 transfected cells.
# Cyno-CHO cells, stably expressing recombinant CXCR3 and G-alpha-16 are grown in F12 medium (Mediatech #45000-360) supplemented with 10% (V/V) FBS (Mediatech #35-01500), 1% Geneticin (Invitrogen #10131-027) and 0.2% Zeocin (Invitrogen #R250-05). The cells are spun down and re-suspended in growth media to a concentration of 4.8 E5 cells/mL. 25 microL of cell suspension is added to each well of a BD-384-well TC treated plate, providing 12,000 cells/well. The plate is incubated at 37° C./5% CO2 overnight. On the day of the assay, the plates are removed, the media is flicked out and 25 microL of Ca-4 dye in assay buffer (HBSS, 10 mM HEPES ph 7.4), containing 2 mM probenacid is added to each well. The cell assay plates are then incubated at 37° C./5% CO2 for one hour.
# Test compounds are dissolved in DMSO and diluted to 1.045 mM in DMSO. Just prior to assay, 2.75 microL of appropriately diluted test compound are added to each well of a 384 well plate containing 45 microL of HBSS buffer. After mixing, 5 microL of diluted compound are added to each well of the cell assay plate for a final assay concentration of 10 microM. The plate is incubated at room temperature for 15 min. 10 microL of IP-10 stock solution in HBSS (4× EC80 concentration) are added to each well of the cell assay plate except those cells reserved as blank wells containing buffer only. Intracellular calcium flux is recorded on the HAMAMTSU FDSS6000, using excitation at 480 nm and emission at 540 nm. Data are analyzed using Activity Base software.
# In general, the preferred potency range (IC50) of compounds in the above assay is between 1 nM to 3 μM, and the most preferred potency range is 1 nM to 20 nM.
# Chain of CXCR3 (A0A2K5UV19 entry or part of it): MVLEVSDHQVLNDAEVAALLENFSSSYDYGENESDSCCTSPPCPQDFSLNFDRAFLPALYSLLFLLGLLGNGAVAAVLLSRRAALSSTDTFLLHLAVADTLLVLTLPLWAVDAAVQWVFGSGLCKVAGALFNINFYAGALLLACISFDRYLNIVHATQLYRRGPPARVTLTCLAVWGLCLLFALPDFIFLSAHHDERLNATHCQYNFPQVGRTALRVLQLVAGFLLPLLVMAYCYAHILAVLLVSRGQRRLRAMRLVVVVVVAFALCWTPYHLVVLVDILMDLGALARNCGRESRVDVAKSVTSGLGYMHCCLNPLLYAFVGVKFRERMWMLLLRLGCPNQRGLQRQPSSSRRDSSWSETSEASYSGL
row,SMILES,IC50 [nM]
1,"Cc1cc(C)n(CC(=O)N2CCN(c3ccccc3C(=O)Nc3cc(CC(C)(C)C)no3)CC2)n1 [N-[3-(2,2-Dimethyl-propyl)-isoxazol-5-yl]-2-{4-[2-(3,5-dimethyl-pyrazol-1-yl)-acetyl]-piperazin-1-yl}-benzamide]",9.5
2,"O=C(NCC(=O)N1CCN(c2ccccc2C(=O)Nc2cccnc2)CC1)c1ccc2c(c1)OCO2 [Benzo[1,3]dioxole-5-carboxylic acid (2-oxo-2-{4-[2-(pyridin-3-ylcarbamoyl)-phenyl]-piperazin-1-yl}-ethyl)-amide]",13.3
3,"COc1ccc(C(=O)NCC(=O)N2CCN(c3ccccc3C(=O)Nc3ccncc3)CC2)cc1OC [3,4-Dimethoxy-N-(2-oxo-2-{4-[2-(pyridin-4-ylcarbamoyl)-phenyl]-piperazin-1-yl}-ethyl)-benzamide]",4.6
4,"Cc1cc(C)n(CC(=O)N2CCN(c3ccccc3C(=O)Nc3nc(-c4ccccn4)cs3)CC2)n1 [2-{4-[2-(3,5-Dimethyl-pyrazol-1-yl)-acetyl]-piperazin-1-yl}-N-(4-pyridin-2-yl-thiazol-2-yl)-benzamide]",11.5
5,"COc1cc(NC(=O)c2ccccc2N2CCN(C(=O)Cn3nc(C)cc3C)[C@@H](C)C2)ccn1 [2-{(S)-4-[2-(3,5-Dimethyl-pyrazol-1-yl)-acetyl]-3-methyl-piperazin-1-yl}-N-(2-methoxy-pyridin-4-yl)-benzamide]",21
6,"Cc1cc(C)n(CC(=O)N2CCN(c3ccccc3C(=O)Nc3nc(C(C)(C)C)c(C#N)s3)CC2)n1 [N-(4-tert-Butyl-5-cyano-thiazol-2-yl)-2-{4-[2-(3,5-dimethyl-pyrazol-1-yl)-acetyl]-piperazin-1-yl}-benzamide]",18.5
7,COc1cc(NC(=O)c2ccccc2N2CCN(C(=O)CN3CCCCC3=O)[C@@H](C)C2)ccn1 [N-(2-Methoxy-pyridin-4-yl)-2-{(S)-3-methyl-4-[2-(2-oxo-piperidin-1-yl)-acetyl]-piperazin-1-yl}-benzamide],13
8,Cc1nn(CC(=O)N2CCN(c3ncc(Cl)cc3NC(=O)c3cccc(C(F)(F)F)c3)CC2)c(C)c1Cl,7.2
9,Cc1nc2ccccc2c(=O)n1CC(=O)N1CCN(c2ccccc2C(=O)Nc2ccncc2)CC1 [2-{4-[2-(2-Methyl-4-oxo-4H-quinazolin-3-yl)-acetyl]-piperazin-1-yl}-N-pyridin-4-yl-benzamide],8.6
10,O=C(NCC(=O)N1CCN(c2ccccc2C(=O)Nc2cccnc2)CC1)c1ccc(OC(F)F)cc1 [4-Difluormethoxy-N-(2-oxo-2-{4-[2-(pyridin-3-ylcarbamoyl)-phenyl]-piperazin-1-yl}-ethyl)-benzamide],18.3
11,"Cc1cc(C)n(CC(=O)N2CCN(c3ccccc3C(=O)Nc3ccnc(OCC(F)(F)F)c3)CC2)n1 [2-{4-[2-(3,5-Dimethyl-pyrazol-1-yl)-acetyl]-piperazin-1-yl}-N-[2-(2,2,2-trifluoro-ethoxy)-pyridin-4-yl]-benzamide]",8.8
12,"Cc1nn(CC(=O)N2CCCN(c3ncc(Cl)cc3NC(=O)c3cccc(Cl)c3)CC2)c(C)c1Cl [3-Chloro-N-(5-chloro-2-{4-[2-(4-chloro-3,5-dimethyl-pyrazol-1-yl)-acetyl]-[1,4]diazepan-1-yl}-pyridin-3-yl)-benzamide]",15
13,Cn1cccc1C(=O)NCC(=O)N1CCN(c2ccccc2C(=O)Nc2cccnc2)CC1 [1-Methyl-1H-pyrrole-2-carboxylic acid (2-oxo-2-{4-[2-(pyridin-3-ylcarbamoyl)-phenyl]-piperazin-1-yl}-ethyl)-amide],12
14,"O=C(Nc1ccncc1)c1ccccc1N1CCN(C(=O)Cn2ccc3cccnc32)CC1 [N-Pyridin-4-yl-2-[4-(2-pyrrolo[2,3-b]pyridin-1-yl-acetyl)-piperazin-1-yl]-benzamide]",4.9
15,COc1ccc(C(=O)N(C)CC(=O)N2CCN(c3ccccc3C(=O)Nc3ccncc3)CC2)cc1 [4-Methoxy-N-methyl-N-(2-oxo-2-{4-[2-(pyridin-4-ylcarbamoyl)-phenyl]-piperazin-1-yl}-ethyl)-benzamide],15

# The remaining molecules from weak to strong by IC50, led by results:
row,IC50 [nM],SMILES
1,18.5,"Cc1cc(C)n(CC(=O)N2CCC(c3ccc(Cl)cc3NC(=O)c3ccccc3)CC2)n1 [N-(5-Chloro-2-{1-[2-(3,5-dimethyl-pyrazol-1-yl)-acetyl]-piperidin-4-yl}-phenyl)-benzamide]"
2,18,CCn1nc(C)cc1C(=O)NCC(=O)N1CCN(c2ccccc2C(=O)Nc2cccnc2)CC1 [2-Ethyl-5-methyl-2H-pyrazole-3-carboxylic acid (2-oxo-2-{4-[2-(pyridin-3-ylcarbamoyl)-phenyl]-piperazin-1-yl}-ethyl)-amide]
3,15,"Cc1cc(C)n(CC(=O)N2CCN(c3ccccc3NC(=O)c3cccnc3)CC2)n1 [N-(2-{4-[2-(3,5-Dimethyl-pyrazol-1-yl)-acetyl]-piperazin-1-yl}-phenyl)-nicotinamide]"
4,13.5,"Cc1cc(C)n(CC(=O)N2CCN(c3ccccc3C(=O)Nc3nc(-c4ccncc4)cs3)CC2)n1 [2-{4-[2-(3,5-Dimethyl-pyrazol-1-yl)-acetyl]-piperazin-1-yl}-N-(4-pyridin-4-yl-thiazol-2-yl)-benzamide]"
5,13,"Cc1nc(C)c(CC(=O)N2CCN(c3ccccc3C(=O)Nc3ccncc3)CC2)s1 [2-{4-[2-(2,4-Dimethyl-thiazol-5-yl)-acetyl]-piperazin-1-yl}-N-pyridin-4-yl-benzamide]"
6,12.5,"Cc1cc(C)n(CC(=O)N2CCN(c3ccccc3C(=O)Nc3ccc(N4CCOCC4)nc3)CC2)n1 [2-{4-[2-(3,5-Dimethyl-pyrazol-1-yl)-acetyl]-piperazin-1-yl}-N-(6-morpholin-4-yl-pyridin-3-yl)-benzamide]"
7,12.5,"Cc1cc(NC(=O)c2ccccc2N2CCN(C(=O)Cn3nc(C)cc3C)CC2)ccn1 [2-{4-[2-(3,5-Dimethyl-pyrazol-1-yl)-acetyl]-piperazin-1-yl}-N-(2-methyl-pyridin-4-yl)-benzamide]"
8,12,"Cc1cc(C)n(CC(=O)N2CCN(c3ccccc3C(=O)Nc3nc4c(s3)CCCC4)CC2)n1 [2-{4-[2-(3,5-Dimethyl-pyrazol-1-yl)-acetyl]-piperazin-1-yl}-N-(4,5,6,7-tetrahydro-benzothiazol-2-yl)-benzamide]"
9,11,O=C(Nc1ccnc(C(F)(F)F)c1)c1ccccc1N1CCN(C(=O)CN2CCCCC2=O)CC1 [2-{4-[2-(2-Oxo-piperidin-1-yl)-acetyl]-piperazin-1-yl}-N-(2-trifluoromethyl-pyridin-4-yl)-benzamide]
10,10,"O=C(Nc1cccnc1)c1ccccc1N1CCN(C(=O)CN2CCc3cccnc32)CC1 [2-[4-(2-2,3-Dihydro-pyrrolo[2,3-b]pyridin-1-yl-acetyl)-piperazin-1-yl]-N-pyridin-3-yl-benzamide]"
11,8.7,"Cc1cc(C)n(CC(=O)N2CCN(c3ccccc3C(=O)Nc3cnc4c(c3)c(C)nn4C)CC2)n1 [N-(1,3-Dimethyl-1H-pyrazolo[3,4-b]pyridin-5-yl)-2-{4-[2-(3,5-dimethyl-pyrazol-1-yl)-acetyl]-piperazin-1-yl}-benzamide]"
12,8.6,"Cc1cc(C)n(CC(=O)N2CCN(c3ccccc3C(=O)Nc3nc4c(s3)COCC4)CC2)n1 [N-(6,7-Dihydro-4H-pyrano[4,3-d]thiazol-2-yl)-2-{4-[2-(3,5-dimethyl-pyrazol-1-yl)-acetyl]-piperazin-1-yl}-benzamide]"
13,8.1,"CN1CCc2nc(NC(=O)c3cc(F)ccc3N3CCN(C(=O)CN4Cc5ccccc5C4=O)CC3)sc2C1 [5-Fluoro-N-(5-methyl-4,5,6,7-tetrahydro-thiazolo[5,4-c]pyridin-2-yl)-2-{4-[2-(1-oxo-1,3-dihydro-isoindol-2-yl)-acetyl]-piperazin-1-yl}-benzamide]"
14,6.8,"Cc1ccc(NC(=O)c2ccccc2N2CCN(C(=O)Cn3ccc4cccnc43)CC2)cn1 [N-(6-Methyl-pyridin-3-yl)-2-[4-(2-pyrrolo[2,3-b]pyridin-1-yl-acetyl)-piperazin-1-yl]-benzamide]"
15,5.4,Cc1nn(CC(=O)N2CCN(c3ccccc3C(=O)Nc3ccncc3)CC2)c(=O)c2ccccc12 [2-{4-[2-(4-Methyl-1-oxo-1H-phthalazin-2-yl)-acetyl]-piperazin-1-yl}-N-pyridin-4-yl-benzamide]
16,5.4,"Cc1cc(C(=O)NCC(=O)N2CCN(c3ccccc3C(=O)Nc3ccncc3)CC2)n(C)n1 [2,5-Dimethyl-2H-pyrazole-3-carboxylic acid (2-oxo-2-{4-[2-(pyridin-4-ylcarbamoyl)-phenyl]-piperazin-1-yl}-ethyl)-amide]"
17,4.8,"Cc1cc(C)n(CC(=O)N2CCN(c3ccccc3C(=O)Nc3cnc4ccccc4c3)CC2)n1 [2-{4-[2-(3,5-Dimethyl-pyrazol-1-yl)-acetyl]-piperazin-1-yl}-N-quinolin-3-yl-benzamide]"
18,3.4,"COc1cc(NC(=O)c2ccccc2N2CCN(C(=O)CN3Cc4ccccc4C3=O)CC2)ccn1 [N-(2-Methoxy-pyridin-4-yl)-2-{4-[2-(1-oxo-1,3-dihydro-isoindol-2-yl)-acetyl]-piperazin-1-yl}-benzamide]"
